Target: T1, human TRPC6 (Homo sapiens, UniProt Q9Y210)
T1 construct: expressed in transfected cells
T1 sequence (Q9Y210 1-931): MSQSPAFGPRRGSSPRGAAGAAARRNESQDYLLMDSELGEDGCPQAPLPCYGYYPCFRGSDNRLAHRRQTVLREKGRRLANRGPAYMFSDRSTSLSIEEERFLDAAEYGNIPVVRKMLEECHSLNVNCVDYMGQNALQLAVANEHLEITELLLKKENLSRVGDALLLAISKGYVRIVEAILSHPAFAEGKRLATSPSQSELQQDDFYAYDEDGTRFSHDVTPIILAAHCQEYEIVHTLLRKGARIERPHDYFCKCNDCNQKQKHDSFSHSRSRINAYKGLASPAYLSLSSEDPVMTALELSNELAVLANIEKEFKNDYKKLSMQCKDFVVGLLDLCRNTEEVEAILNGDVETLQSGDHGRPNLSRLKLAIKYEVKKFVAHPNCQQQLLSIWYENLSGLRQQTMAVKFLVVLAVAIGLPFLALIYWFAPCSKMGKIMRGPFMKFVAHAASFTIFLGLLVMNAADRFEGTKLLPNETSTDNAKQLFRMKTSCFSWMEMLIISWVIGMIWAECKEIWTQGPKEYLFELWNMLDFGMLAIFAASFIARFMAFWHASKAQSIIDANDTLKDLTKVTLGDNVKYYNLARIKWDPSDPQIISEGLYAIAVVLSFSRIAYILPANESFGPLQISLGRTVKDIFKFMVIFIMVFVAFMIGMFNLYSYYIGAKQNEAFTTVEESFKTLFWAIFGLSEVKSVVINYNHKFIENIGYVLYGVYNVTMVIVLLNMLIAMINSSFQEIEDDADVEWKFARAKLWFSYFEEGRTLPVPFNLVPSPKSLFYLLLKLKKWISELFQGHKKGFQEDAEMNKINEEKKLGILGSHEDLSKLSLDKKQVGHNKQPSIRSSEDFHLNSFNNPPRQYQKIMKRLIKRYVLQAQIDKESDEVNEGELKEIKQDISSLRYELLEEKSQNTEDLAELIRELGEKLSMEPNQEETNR
Assay: TRPC6 calcium flux assay (FLIPR, OAG-stimulated calcium influx)
Assay type: cell-based
Conditions: HEK293 cells stably transfected with human TRPC6, read-out: hTRPC6 Potency
Procedure, shortened: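 IC50 derived by plotting background-corrected peak fluorescence (180 s window, normalized to OAG-triggered signal vs buffer) against dose. Stable human TRPC6 HEK293 line was dye-loaded, exposed to compound 25 min, then challenged with 50 uM final OAG in 2 mM Ca2+ HEPES buffer pH 7.2, 0.5% DMSO.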

IC50 | SMILES
> 3750 nM | CNC(=O)C1CCN(C(=O)Cn2c(N3CC[C@@H](F)[C@H](N)C3)nc3cc(F)c(F)cc32)CC1 [Example 534, 1-(2-(2-((3R,4R)-3-amino-4-fluoropiperidin-1-yl)-5,6-difluoro-1H-benzo[d]imidazol-1-yl)acetyl)-N-methylpiperidine-4-carboxamide]
> 3750 nM | CC(=O)NC1CCCN(C(=O)Cn2c(N3CC[C@@H](F)[C@H](N)C3)nc3cc(F)c(F)cc32)C1 (stereo partly drawn) [Example 535, N-(1-(2-(2-((3R,4R)-3-amino-4-fluoropiperidin-1-yl)-5,6-difluoro-1H-benzo[d]imidazol-1-yl)acetyl)piperidin-3-yl)acetamide]
> 3750 nM | N[C@@H]1CN(c2nc3cc(F)c(F)cc3n2CC(=O)N2CCC(C(=O)N3CCCCC3)CC2)CC[C@H]1F [Example 536, 2-(2-((3R,4R)-3-amino-4-fluoropiperidin-1-yl)-5,6-difluoro-1H-benzo[d]imidazol-1-yl)-1-(4-(piperidine-1-carbonyl)piperidin-1-yl)ethan-1-one]
> 1750 nM | N[C@@H]1CN(c2nc3cc(F)c(F)cc3n2CC(=O)N2CCC(C(=O)N3CCCCCC3)CC2)CC[C@H]1F [Example 537, 2-(2-((3R,4R)-3-amino-4-fluoropiperidin-1-yl)-5,6-difluoro-1H-benzo[d]imidazol-1-yl)-1-(4-(azepane-1-carbonyl)piperidin-1-yl)ethan-1-one]
> 3750 nM | COCCN(C(=O)Cn1c(N2CC[C@@H](F)[C@H](N)C2)nc2cc(F)c(F)cc21)C1CCS(=O)(=O)C1 (stereo partly drawn) [Example 538, 2-(2-((3R,4R)-3-amino-4-fluoropiperidin-1-yl)-5,6-difluoro-1H-benzo[d]imidazol-1-yl)-N-(1,1-dioxidotetrahydrothiophen-3-yl)-N-(2-methoxyethyl)acetamide]
> 3750 nM | CC1CCCN(C(=O)C2CCN(C(=O)Cn3c(N4CC[C@@H](F)[C@H](N)C4)nc4cc(F)c(F)cc43)CC2)C1 (stereo partly drawn) [Example 539, 2-(2-((3R,4R)-3-amino-4-fluoropiperidin-1-yl)-5,6-difluoro-1H-benzo[d]imidazol-1-yl)-1-(4-(3-methylpiperidine-1-carbonyl)piperidin-1-yl)ethan-1-one]
> 3750 nM | CC(=O)N1CCN(C(=O)Cn2c(N3CC[C@@H](F)[C@H](N)C3)nc3cc(F)c(F)cc32)CC1 [Example 540, 1-(4-acetylpiperazin-1-yl)-2-(2-((3R,4R)-3-amino-4-fluoropiperidin-1-yl)-5,6-difluoro-1H-benzo[d]imidazol-1-yl)ethan-1-one]
> 3750 nM | N[C@@H]1CN(c2nc3cc(F)c(F)cc3n2CC(=O)N(CC2CCCO2)C2CCS(=O)(=O)C2)CC[C@H]1F (stereo partly drawn) [Example 541, 2-(2-((3R,4R)-3-amino-4-fluoropiperidin-1-yl)-5,6-difluoro-1H-benzo[d]imidazol-1-yl)-N-(1,1-dioxidotetrahydrothiophen-3-yl)-N-((tetrahydrofuran-2-yl)methyl)acetamide]
> 3750 nM | CC(C)N(C)C(=O)C1CCN(C(=O)Cn2c(N3CC[C@@H](F)[C@H](N)C3)nc3cc(F)c(F)cc32)CC1 [Example 542, 1-(2-(2-((3R,4R)-3-amino-4-fluoropiperidin-1-yl)-5,6-difluoro-1H-benzo[d]imidazol-1-yl)acetyl)-N-isopropyl-N-methylpiperidine-4-carboxamide]
> 3750 nM | COc1cc(F)cc2nc(N3CC[C@@H](F)[C@H](N)C3)n(CC(=O)N(C)CC(F)(F)F)c12 [Example 544, 2-(2-((3R,4R)-3-amino-4-fluoropiperidin-1-yl)-5-fluoro-7-methoxy-1H-benzo[d]imidazol-1-yl)-N-methyl-N-(2,2,2-trifluoroethyl)acetamide]
> 3750 nM | COc1cc(F)cc2c1nc(N1CC[C@@H](F)[C@H](N)C1)n2CC(=O)N1CCOCC1 [Example 545, 2-(2-((3R,4R)-3-amino-4-fluoropiperidin-1-yl)-6-fluoro-4-methoxy-1H-benzo[d]imidazol-1-yl)-1-morpholinoethan-1-one]
> 3750 nM | COc1cc(F)cc2nc(N3CC[C@@H](F)[C@H](N)C3)n(CC(=O)N3CCOCC3)c12 [Example 546, 2-(2-((3R,4R)-3-amino-4-fluoropiperidin-1-yl)-5-fluoro-7-methoxy-1H-benzo[d]imidazol-1-yl)-1-morpholinoethan-1-one]
43.7 nM | N[C@@H]1CN(c2nc3cc(F)c(F)cc3n2[C@@H]2CCN(C3CC3)C2=O)CC[C@H]1F [Example 547, (R)-3-(2-((3R,4R)-3-amino-4-fluoropiperidin-1-yl)-5,6-difluoro-1H-benzo[d]imidazol-1-yl)-1-cyclopropylpyrrolidin-2-one]
382 nM | N[C@@H]1CN(c2nc3cc(F)c(F)cc3n2[C@H]2CCN(C3CCOCC3)C2=O)CC[C@H]1F [Example 548, (S)-3-(2-((3R,4R)-3-amino-4-fluoropiperidin-1-yl)-5,6-difluoro-1H-benzo[d]imidazol-1-yl)-1-(tetrahydro-2H-pyran-4-yl)pyrrolidin-2-one]
410 nM | N[C@@H]1CN(c2nc3cc(F)c(F)cc3n2[C@H]2CCN(C3CC3)C2=O)CC[C@H]1F [Example 549, (S)-3-(2-((3R,4R)-3-amino-4-fluoropiperidin-1-yl)-5,6-difluoro-1H-benzo[d]imidazol-1-yl)-1-cyclopropylpyrrolidin-2-one]
> 3750 nM | N[C@@H]1CN(c2nc3cc(F)c(F)cc3n2[C@@H]2CCN(C3CCOCC3)C2=O)CC[C@H]1F [Example 550, (R)-3-(2-((3R,4R)-3-amino-4-fluoropiperidin-1-yl)-5,6-difluoro-1H-benzo[d]imidazol-1-yl)-1-(tetrahydro-2H-pyran-4-yl)pyrrolidin-2-one]
6.1 nM | Cc1cnc(Cn2c(N3CC[C@@H](F)[C@H](N)C3)nc3cc(F)c(F)cc32)s1 [Example 551, (3R,4R)-1-(5,6-difluoro-1-((5-methylthiazol-2-yl)methyl)-1H-benzo[d]imidazol-2-yl)-4-fluoropiperidin-3-amine]
6.51 nM | Cc1nnc(Cn2c(N3CC[C@@H](F)[C@H](N)C3)nc3c(F)cc(F)cc32)s1 [Example 552, (3R,4R)-1-(4,6-difluoro-1-((5-methyl-1,3,4-thiadiazol-2-yl)methyl)-1H-benzo[d]imidazol-2-yl)-4-fluoropiperidin-3-amine]
6.69 nM | Cc1nnc(Cn2c(N3CC[C@@H](F)[C@H](N)C3)nc3cc(F)c(F)cc32)s1 [Example 553, (3R,4R)-1-(5,6-difluoro-1-((5-methyl-1,3,4-thiadiazol-2-yl)methyl)-1H-benzo[d]imidazol-2-yl)-4-fluoropiperidin-3-amine]
10.9 nM | CN(CC(F)(F)F)C(=O)Cn1c(N2CC[C@@H](F)[C@H](N)C2)nc2ccc(C(F)(F)F)cc21 [Example 554, 2-(2-((3R,4R)-3-amino-4-fluoropiperidin-1-yl)-6-(trifluoromethyl)-1H-benzo[d]imidazol-1-yl)-N-methyl-N-(2,2,2-trifluoroethyl)acetamide]
11.6 nM | N[C@@H]1CN(c2nc3ncc(F)cc3n2Cc2ncc(Cl)cn2)CC[C@H]1F [Example 555, (3R,4R)-1-(1-((5-chloropyrimidin-2-yl)methyl)-6-fluoro-1H-imidazo[4,5-b]pyridin-2-yl)-4-fluoropiperidin-3-amine]
11.9 nM | CS(=O)(=O)c1ccc(Cn2c(N3CC[C@@H](F)[C@H](N)C3)nc3c(F)cc(F)cc32)nc1 [Example 556, (3R,4R)-1-(4,6-difluoro-1-((5-(methylsulfonyl)pyridin-2-yl)methyl)-1H-benzo[d]imidazol-2-yl)-4-fluoropiperidin-3-amine]
12.8 nM | N[C@@H]1CN(c2nc3c(F)cc(F)cc3n2Cc2nnc(C(F)F)s2)CC[C@H]1F [Example 557, (3R,4R)-1-(1-((5-(difluoromethyl)-1,3,4-thiadiazol-2-yl)methyl)-4,6-difluoro-1H-benzo[d]imidazol-2-yl)-4-fluoropiperidin-3-amine]
16.1 nM | CN(CC(F)(F)F)C(=O)Cn1c(N2CC[C@@H](F)[C@H](N)C2)nc2c(F)cc(F)cc21 [Example 558, 2-(2-((3R,4R)-3-amino-4-fluoropiperidin-1-yl)-4,6-difluoro-1H-benzo[d]imidazol-1-yl)-N-methyl-N-(2,2,2-trifluoroethyl)acetamide]
16.6 nM | CN(CC(F)(F)F)C(=O)Cn1c(N2CC[C@@H](F)[C@H](N)C2)nc2ccc(Cl)cc21 [Example 559, 2-(2-((3R,4R)-3-amino-4-fluoropiperidin-1-yl)-6-chloro-1H-benzo[d]imidazol-1-yl)-N-methyl-N-(2,2,2-trifluoroethyl)acetamide]
